Laboratory results from PubChem BioAssay AID1417 (Emory University Molecular Libraries Screening Center, 2008).

molecular target: Induced myeloid leukemia cell differentiation protein Mcl-1 (Homo sapiens) (UniProt Q07820); test: Mcl-1/Noxa binding inhibitor potency, dose response, biochemical, TR-FRET (AID 1417); details: Mcl-1/Noxa peptide interaction, cell-free TR-FRET (terbium/rhodamine), 2 h; measured here: absolute IC50
Sequence (Q07820 whole entry, looked up): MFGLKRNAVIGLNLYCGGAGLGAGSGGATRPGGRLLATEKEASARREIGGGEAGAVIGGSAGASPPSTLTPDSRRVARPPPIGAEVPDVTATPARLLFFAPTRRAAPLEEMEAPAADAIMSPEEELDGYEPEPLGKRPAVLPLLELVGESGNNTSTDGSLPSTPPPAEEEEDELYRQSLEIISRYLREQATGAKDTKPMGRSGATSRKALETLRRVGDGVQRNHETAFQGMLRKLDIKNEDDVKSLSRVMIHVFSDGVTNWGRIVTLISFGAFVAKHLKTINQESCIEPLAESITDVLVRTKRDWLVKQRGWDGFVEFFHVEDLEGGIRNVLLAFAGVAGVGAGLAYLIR

IC50 [µM]	Compound
< 0.4	CCOc1cc(/C=N/Nc2nc(-c3cccs3)c(NC(C)=O)s2)ccc1O
> 54	O=C1C=CC(=O)C(C2=C3C(=O)N(CCc4ccccc4)CC(=O)N3CCC2)=C1
5.71	O=C(O)CSc1cc(C(=O)c2ccccc2O)cn2c(=O)c3c(-c4ccccc4)csc3nc12
> 54	O=C1C2C3C=CC(C2C(=O)N1c1cccc(O)c1)C1C2C(=O)N(c4cccc(O)c4)C(=O)C2C31 (stereo unspecified)
< 0.4	N[C@@H](Cc1cc(I)c(Oc2ccc(O)c(I)c2)c(I)c1)C(=O)O
< 0.4	O=[N+]([O-])c1cc(CN2CCOCC2)c2cccnc2c1O
3.3	O=C(/C=C\c1ccco1)c1ccc(NC(=O)c2ccco2)cc1
< 0.4	CCOC(=O)c1c(C)oc2c1c(CN1CCN(CCO)CC1)c(O)c1ccccc12
2.11	COc1ccccc1NC(=O)c1cc2cc(Br)ccc2cc1O
8.95	COC(=O)c1c(NC(=O)Cc2cccs2)sc2c1CCCC2
> 54	COCCN(CCOC)S(=O)(=O)c1ccc(C(=O)Nc2c(C)n(C)n(-c3ccccc3)c2=O)cc1
1.33	O=C(Nc1ccc2nc(-c3ccco3)c(-c3ccco3)nc2c1)NC1CC1
> 54	COc1cnn(-c2ccc(Br)cc2)c(=O)c1SCc1ccccc1
> 54	CC1CCN(c2ccc(NC(=O)Cc3ccccc3)cc2)CC1
< 0.4	Cc1ccc(NC(=O)CN2C(=O)/C(=C3\SC(=S)N(C4CCS(=O)(=O)C4)C3=O)c3ccccc32)cc1 (stereo unspecified)
3.19	CCN(CC)c1nc2c3c(nc4c(c3c1C#N)CC(=O)N4c1ccc(Cl)cc1)NC(C)=N2
< 0.4	Fc1cc(F)c2nc(Nc3nc4cc5c(cc4s3)OCO5)sc2c1
6.26	Cc1[nH]c2ccccc2c1/C=C/c1nc2ccccc2c(=O)[nH]1
< 0.4	O=C(OCC1O[C@@H](OC(=O)c2cc(O)c(O)c(O)c2)[C@@H](OC(=O)c2cc(O)c(O)c(O)c2)[C@@H](OC(=O)c2cc(O)c(O)c(O)c2)[C@@H]1OC(=O)c1cc(O)c(O)c(O)c1)c1cc(O)c(O)c(O)c1 (stereo partly specified)
1.3	N=C1/C(=C\c2ccc(-c3cccc(C(=O)O)c3)o2)C(=O)N=C2SC=C(c3ccccc3)N12
8.57	Cc1ccc(N=C2NC(=O)S/C2=C\c2ccco2)cc1
4.17	Nc1nc2c(c(=O)[nH]1)C(c1cccc3ccccc13)C1=C(N2)c2ccccc2C1=O (stereo unspecified)
< 0.4	CCOC(=O)C1CCN(c2nc(N)c3c(N)nc(SCC(=O)O)cc3c2C#N)CC1
> 54	COc1ccc(C(=O)c2sc3nc(-c4ccccc4)ccc3c2N)cc1OC
< 0.4	CCOC(=O)/C=C(\C)Sc1cc(O)c2ccccc2c1O
3.55	COC(=O)CSc1ncnc2c1sc1nc(-c3ccco3)c3c(c12)CC(C)(C)OC3

IC50 [µM]	Compound
< 0.4	CN(C)c1ccc(NC(=O)Nc2cccc(Cl)c2)cc1
> 54	O=[N+]([O-])c1ccccc1/C=C/C=N/n1c(-c2ccccc2)n[nH]c1=S
11.2	CC1=NN(C(N)=S)C(=O)C1N=Nc1ccc(O)cc1 (stereo unspecified)
< 0.4	CC1=C(C#N)C(=O)NC(=O)/C1=C/c1ccc(-c2ccc(S(N)(=O)=O)cc2)o1
3.26	COc1cc(/C=C2/SC(=S)NC2=O)ccc1OS(=O)(=O)c1ccc(C)cc1
> 54	COc1ccc(NC(=O)Cc2c(SC)c3ccccc3n2Cc2ccccc2)cc1
0.915	O=C(O)c1ccc(-n2cccc2/C=N\NC(=O)c2cc3cc(Br)ccc3o2)cc1
2.84	O=C(COc1cccnc1[N+](=O)[O-])c1ccc(Cl)s1
< 0.4	COc1cc(C(c2nnnn2C2CCCC2)N2CCc3ccccc3C2)ccc1O (stereo unspecified)
2.13	O=C1NC(=S)/C(=C\c2ccc(-c3ccccc3Cl)o2)S1
> 54	O=C(NCCCO)c1ccc2nc(-c3ccco3)c(-c3ccco3)nc2c1
1.07	CCOc1cc(/C=N/NC(=O)c2ccc(-c3csc(Nc4ccc(C)cc4)n3)cc2)ccc1OCC(=O)O
2.98	Cc1ccc(-c2cc(C(=O)OCC(=O)N(C)C3CCS(=O)(=O)C3)c3ccccc3n2)o1 (stereo unspecified)
6.9	O=C(Nc1ccc(N2CCCC2)cc1)c1ccccc1F
43.9	Cc1ccc(OCCCC(=O)Nc2ccccc2C(F)(F)F)cc1
5.22	O=C(CSc1ccsc1[N+](=O)[O-])N1CCN(c2ccc(Cl)cc2)CC1
4.13	O=C1NN(c2ccc(Cl)c(Cl)c2)C(=O)/C1=C/c1cccc(OC(=O)c2cccs2)c1
1.93	Cc1cccc(C)c1NC(=O)CSc1nnc(-c2ccco2)c(-c2ccco2)n1
> 54	CC(=O)c1sc2nc(-c3cccs3)ccc2c1N
4.75	COc1ccc(-c2csc(/C(C#N)=C\c3ccc(O)c([N+](=O)[O-])c3)n2)cc1OC
< 0.4	Cn1c(=O)c(C(=O)COC(=O)c2cc(-c3ccco3)nc3ccccc23)c(N)n(Cc2ccccc2)c1=O
2.43	COc1cc(C2Nc3cccc4cccc(c34)N2)cc(OC)c1OC(C)=O
> 54	COc1ccc(N2CCC(CNC(=S)Nc3cccc(OC)c3)C2)cc1 (stereo unspecified)
4.71	Cc1ccc(-c2nnc3ccc(SC(C)C(=O)O)nn23)cc1 (stereo unspecified)
9.71	O=C1NN(c2ccccc2)C(=O)/C1=C\c1ccc(-c2cc([N+](=O)[O-])ccc2O)o1
